Reference: patent US12077503B2, “Substituted cyclic amides and their use as herbicides” (FMC CORPORATION, priority 2015, dated 2024)

Columns and labels:
Type in all cases: in vivo
[1] = tested on: wheat (Triticum aestivum); test: Test A postemergence; details: for Plant response rating, Wheat: postemergence, 0 to 100 scale (0 no effect, 100 complete control)
Method in brief: (§1)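 Visual injury, scored on a 0–100 scale relative to untreated controls, was recorded about 10 d after application. Treatments were a preemergence soil spray over planted seeds or a postemergence spray on plants at the one- to two-leaf stage, 2 to 10 cm tall, all in loam soil–sand blend in the greenhouse.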

[2] = tested on: ragweed (common ragweed, Ambrosia elatior); test: Test A postemergence; details: for Plant response rating, Ragweed: postemergence, 0 to 100 scale (0 no effect, 100 complete control)
Method in brief: as §1

[3] = tested on: Galium (catchweed bedstraw, Galium aparine); test: Test A postemergence; details: for Plant response rating, Galium: postemergence, 0 to 100 scale (0 no effect, 100 complete control)
Method in brief: as §1

[4] = tested on: giant foxtail (Setaria faberii); test: Test A postemergence; details: for Plant response rating, Foxtail, Giant: postemergence, 0 to 100 scale (0 no effect, 100 complete control)
Method in brief: as §1

[5] = tested on: barnyardgrass (Echinochloa crus-galli); test: Test A postemergence; details: for Plant response rating, Barnyardgrass: postemergence, 0 to 100 scale (0 no effect, 100 complete control)
Method in brief: as §1

corn (Zea mays) = test: Test A postemergence; details: for Plant response rating, Corn: postemergence, 0 to 100 scale (0 no effect, 100 complete control)
Method in brief: as §1

Kochia (Kochia scoparia) [6] = test: Test A postemergence; details: for Plant response rating, Kochia: postemergence, 0 to 100 scale (0 no effect, 100 complete control)
Method in brief: as §1

[7] = tested on: blackgrass (Alopecurus myosuroides); test: Test A postemergence; details: for Plant response rating, Blackgrass: postemergence, 0 to 100 scale (0 no effect, 100 complete control)
Method in brief: as §1

[8] = tested on: pigweed (Amaranthus retroflexus); test: Test A postemergence; details: for Plant response rating, Pigweed: postemergence, 0 to 100 scale (0 no effect, 100 complete control)
Method in brief: as §1

[9] = tested on: ryegrass, Italian (Italian ryegrass, Lolium multiflorum); test: Test A postemergence; details: for Plant response rating, Ryegrass, Italian: postemergence, 0 to 100 scale (0 no effect, 100 complete control)
Method in brief: as §1

[10] = tested on: ragweed (common ragweed, Ambrosia elatior); test: Test A preemergence; details: for Plant response rating, Ragweed: preemergence
Method in brief: as §1

[11] = tested on: giant foxtail (Setaria faberii); test: Test A preemergence
Method in brief: as §1

[12] = tested on: barnyardgrass (Echinochloa crus-galli); test: Test A preemergence
Method in brief: as §1

Kochia (Kochia scoparia) [13] = test: Test A preemergence
Method in brief: as §1

[14] = tested on: pigweed (Amaranthus retroflexus); test: Test A preemergence; details: for Plant response rating, Pigweed: preemergence
[15] = tested on: ryegrass, Italian (Italian ryegrass, Lolium multiflorum); test: Test A preemergence; details: for Plant response rating, Ryegrass, Italian: preemergence
Method in brief: as §1

rice (Oryra sativa) = test: Test B flooded paddy test
Method in brief: (§2)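 Compound goes directly into floodwater once pots are flooded 3 cm above soil, targeting plants at two leaves; the water depth is then held for the test duration. Plants sit 13–15 d in a greenhouse and are rated visually, 100 denoting complete control.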

[16] = tested on: barnyardgrass (Echinochloa crus-galli); test: Test B flooded paddy test
Method in brief: as §2

[17] = tested on: ducksalad (Heteranthera limosa); test: Test B flooded paddy test
Method in brief: as §2

[18] = tested on: sedge, umbrella (small-flower umbrella sedge, Cyperus difformis); test: Test B flooded paddy test
Method in brief: as §2

[19] = 125 g ai/ha, visual injury after approximately 10 d
[20] = 500 g ai/ha, visual injury, approx. 10 d
[21] = 125 g ai/ha, visual rating after approx. 10 d
[22] = 125 g ai/ha, visual rating after approx. 10 d, 0 to 100 scale where 0 is no effect and 100 is complete control
[23] = 500 g ai/ha, 0 to 100 scale, 0 = no effect, 100 = complete control
[24] = 125 g ai/ha, Preemergence, visual injury after approximately 10 d, 0 to 100 scale where 0 is no effect and 100 is complete control
[25] = 500 g ai/ha, preemergence, 0 to 100 scale, 0 = no effect, 100 = complete control
[26] = Flood, 250 g ai/ha, 0 to 100 scale where 0 is no effect and 100 is complete control, 13 to 15 d
[27] = Triticum aestivum, post-emergence, 240 h, read-out: Plant response rating, Wheat
[28] = Ambrosia artemisiifolia, post-emergence, 240 h, read-out: Plant response rating, Ragweed
[29] = Galium, post-emergence, 240 h, read-out: Plant response rating, Galium
[30] = Setaria faberi, post-emergence, 240 h, read-out: Plant response rating, Foxtail, Giant
[31] = Echinochloa crus-galli, post-emergence, 240 h, read-out: Plant response rating, Barnyardgrass
[32] = Zea mays, post-emergence, 240 h, read-out: Plant response rating, Corn
[33] = Bassia scoparia, post-emergence, 240 h, read-out: Plant response rating, Kochia
[34] = Alopecurus myosuroides, post-emergence, 240 h, read-out: Plant response rating, Blackgrass
[35] = Amaranthus retroflexus, post-emergence, 240 h, read-out: Plant response rating, Pigweed
[36] = Lolium multiflorum, post-emergence, 240 h, read-out: Plant response rating, Ryegrass, Italian

O=C(Nc1ccccc1F)C1C(=O)N(CC2CC2)CC1c1cccc(C(F)(F)F)c1 (stereo not drawn) [Compound 682]
80: Plant response rating, Foxtail, Giant [4, 20]
20: Plant response rating, Wheat [1, 20] | Plant response rating, Foxtail, Giant [4, 19] | Plant response rating, Barnyardgrass [5, 20] | Plant response rating, Ryegrass, Italian [15, 22]
0: Plant response rating, Wheat [1, 19] | Plant response rating, Ragweed [2, 19] | Plant response rating, Ragweed [2, 20] | Plant response rating, Galium [3, 19] | Plant response rating, Galium [3, 20] | Plant response rating, Barnyardgrass [5, 21] | Plant response rating, Corn (corn (Zea mays); [19]) | Plant response rating, Corn (corn (Zea mays); [20]) | Plant response rating, Kochia (Kochia (Kochia scoparia) [6]; [19]) | Plant response rating, Kochia (Kochia (Kochia scoparia) [6]; [20]) | Plant response rating, Blackgrass [7, 21] | Plant response rating, Blackgrass [7, 20] | Plant response rating, Pigweed [8, 19] | Plant response rating, Pigweed [8, 20] | Plant response rating, Ryegrass, Italian [9, 19] | Plant response rating, Ryegrass, Italian [9, 20] | Plant response rating, Ragweed [10, 22] | Plant response rating, Ragweed [10, 23] | Plant response rating, Barnyardgrass [12, 24] | Plant response rating, Barnyardgrass [12, 25] | Plant response rating, Kochia (Kochia (Kochia scoparia) [13]; [24]) | Plant response rating, Kochia (Kochia (Kochia scoparia) [13]; [25]) | Plant response rating, Pigweed [14, 22] | Plant response rating, Pigweed [14, 23] | Plant response rating, Rice (rice (Oryra sativa); [26]) | Plant response rating, Barnyardgrass [16, 26] | Plant response rating, Ducksalad [17, 26] | Plant response rating, Sedge, Umbrella [18, 26]
90: Plant response rating, Foxtail, Giant [11, 24] | Plant response rating, Foxtail, Giant [11, 25]
30: Plant response rating, Ryegrass, Italian [15, 23]

COc1ccc([C@H]2CN(C)C(=O)[C@@H]2C(=O)Nc2ccccc2SC)cc1F [Compound 1022]
70%: pest or weed control at 500 g/ha [4, 30] | pest or weed control at 125 g/ha (Kochia (Kochia scoparia) [13]; Bassia scoparia, pre-emergence, 240 h, read-out: Kochia plant response rating (0 to 100 scale, 0 is no effect, 100 is complete control)) | pest or weed control at 500 g/ha ([14]; Amaranthus retroflexus, pre-emergence, 240 h, read-out: Pigweed plant response rating)
20%: plant injury at 500 g/ha (corn (Zea mays); [32])
100%: pest or weed control at 500 g/ha [5, 31] | pest or weed control at 500 g/ha ([11]; Setaria faberi, pre-emergence, 240 h, read-out: Foxtail, Giant plant response rating) | pest or weed control at 125 g/ha ([11]; Setaria faberi, pre-emergence, 240 h, read-out: Foxtail, Giant plant response rating (0 to 100 scale, 0 is no effect, 100 is complete control)) | pest or weed control at 500 g/ha ([12]; Echinochloa crus-galli, pre-emergence, 240 h, read-out: Barnyardgrass plant response rating)
50%: pest or weed control at 500 g/ha [3, 29] | pest or weed control at 125 g/ha [4, 30] | pest or weed control at 500 g/ha ([15]; Lolium multiflorum, pre-emergence, 240 h, read-out: Ryegrass, Italian plant response rating)
80%: pest or weed control at 500 g/ha (Kochia (Kochia scoparia) [13]; Bassia scoparia, pre-emergence, 240 h, read-out: Kochia plant response rating)
75%: pest or weed control at 250 g/ha ([17]; Heteranthera limosa, read-out: Ducksalad plant response rating)
30%: plant injury at 500 g/ha [1, 27] | pest or weed control at 125 g/ha [3, 29] | pest or weed control at 125 g/ha (Kochia (Kochia scoparia) [6]; [33]) | pest or weed control at 500 g/ha [9, 36] | pest or weed control at 125 g/ha ([14]; Amaranthus retroflexus, pre-emergence, 240 h, read-out: Pigweed plant response rating (0 to 100 scale, 0 is no effect, 100 is complete control))
0%: plant injury at 125 g/ha [1, 27] | pest or weed control at 125 g/ha [2, 28] | pest or weed control at 500 g/ha [2, 28] | plant injury at 125 g/ha (corn (Zea mays); [32]) | pest or weed control at 125 g/ha [7, 34] | pest or weed control at 500 g/ha [7, 34] | pest or weed control at 125 g/ha [8, 35] | pest or weed control at 500 g/ha [8, 35] | pest or weed control at 125 g/ha [9, 36] | pest or weed control at 500 g/ha ([10]; Ambrosia artemisiifolia, pre-emergence, 240 h, read-out: Ragweed plant response rating) | pest or weed control at 125 g/ha ([10]; Ambrosia artemisiifolia, pre-emergence, 240 h, read-out: Ragweed plant response rating (0 to 100 scale, 0 is no effect, 100 is complete control)) | pest or weed control at 125 g/ha ([15]; Lolium multiflorum, pre-emergence, 240 h, read-out: Ryegrass, Italian plant response rating (0 to 100 scale, 0 is no effect, 100 is complete control)) | pest or weed control at 250 g/ha (rice (Oryra sativa); Oryza sativa, read-out: Rice plant response rating) | pest or weed control at 250 g/ha ([16]; Echinochloa crus-galli, read-out: Barnyardgrass plant response rating) | pest or weed control at 250 g/ha ([18]; Cyperus difformis, read-out: Sedge, Umbrella plant response rating)
60%: pest or weed control at 125 g/ha [5, 31] | pest or weed control at 500 g/ha (Kochia (Kochia scoparia) [6]; [33]) | pest or weed control at 125 g/ha ([12]; Echinochloa crus-galli, pre-emergence, 240 h, read-out: Barnyardgrass plant response rating (0 to 100 scale, 0 is no effect, 100 is complete control))
